Assay results published in patent publication US20220204473A1, “COMPOUND AS IRAK INHIBITOR” (SHANGHAI MEIYUE BIOTECH DEVELOPMENT CO., LTD., priority 2018, published 2022).
Where two headings read alike, the source gives them in different places.

Tests used:
human IRAK4 = target: T1, human IRAK4 (Homo sapiens, UniProt Q9NWZ3); assay: IRAK4 MSA (Mobility-Shift Assay) at Km ATP; assay type: biochemical; settings: GST-IRAK4 1 nM, ATP 37 μM (Km); read-out: IC50 for inhibiting human IRAK4 kinase
T1 construct: purchased Cama (so in the source)
T1 sequence (Q9NWZ3 1-460): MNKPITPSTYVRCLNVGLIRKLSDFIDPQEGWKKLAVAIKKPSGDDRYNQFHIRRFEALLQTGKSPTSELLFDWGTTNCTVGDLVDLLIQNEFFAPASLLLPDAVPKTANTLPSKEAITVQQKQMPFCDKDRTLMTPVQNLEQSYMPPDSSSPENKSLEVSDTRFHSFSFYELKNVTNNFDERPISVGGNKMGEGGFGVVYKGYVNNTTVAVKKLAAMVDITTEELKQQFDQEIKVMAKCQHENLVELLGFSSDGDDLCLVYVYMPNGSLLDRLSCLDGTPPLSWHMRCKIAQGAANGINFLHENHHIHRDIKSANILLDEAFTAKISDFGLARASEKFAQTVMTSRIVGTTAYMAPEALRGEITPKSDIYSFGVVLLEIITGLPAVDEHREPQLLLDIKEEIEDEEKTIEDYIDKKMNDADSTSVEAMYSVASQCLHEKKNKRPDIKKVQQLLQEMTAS
Method: A recombinant fusion protein of N-terminal GST (glutathione-S-transferase) and human IRAK4 was used as enzyme (GST-IRAK4, kinase IRAK4 (Cama)) at a final concentration of 1 nM; ATP (Sigma) was at a final concentration of 37 μM; the substrates used for the kinase reaction were a 5-FAM (5-carboxyfluorescein)-labeled polypeptide (5-FAM-[…]-COOH) and a substrate peptide FAM-P8 (GL Biochem) at final concentrations of […].
In this assay, 500 μM solutions of the compounds were prepared in 100% DMSO, and serially 4-fold diluted to the 10th concentration gradient with 100% DMSO, followed by a 10-fold dilution in the compound buffer (50 mM HEPES. pH 7.5, 0.00015% Brij-35) to give intermediate dilutions of the compounds at a final concentration of 10 μM-0.04 nM containing 10% DMSO respectively, 5 μL of the dilutions were transferred into a black 384-well plate respectively.
IRAK4 was diluted to 2.5 nM in the kinase buffer (50 mM HEPES, pH 7.5, 0.00015% Brij-35, 2 mM DTT). 10 μL of the IRAK4 dilution was transferred to the 384-well plate and co-incubated with the compound for 10-15 min.
The substrate and ATP were diluted to 12.5 μM and 92.5 μM with reaction buffer (50 mM HEPES, pH 7.5, 0.00015% Brij-35, 10 mM MgCl2), respectively. 10 μL of the dilutions were transferred to a 384-well plate and incubated at 28° C. for 1 h respectively. The reaction was terminated by adding 25 μL of 50 mM EDTA to the 384-well plate.
The inhibition rates of IRAK4 by the compounds were calculated by measuring the rate of phosphorylated substrate using a Caliper EZ Reader (PerkinElmer) and the IC50 values were calculated by XL-fit software.

[1] = system: TNF-α release in LPS-induced Balb/c female mice; assay: Inhibition of TNF-α release in LPS-induced Balb/c female mice; assay type: in vivo, mouse; design: concentration or dose not given beside the values; settings: oral gavage 5 h before LPS induction, serum 1.5 h after stimulation
Method: In the normal control groups, the animals received an intraperitoneal injection of normal saline (10 mL/kg) and in the model groups, the animals received LPS stimulation (Sigma CAT #L2630, i.p., 10 mL/kg, 0.2 mg/kg). During the assay, to the test compounds, DMSO, Solutol and 10 mM PBS were sequentially added to prepare a solution or suspension of required concentration for administration. For the vehicle, DMSO, Solutol and 10 mM PBS were mixed in a volume ratio of 5:15:80. In each of the groups, the animals were administered through oral gavage (10 mL/kg) 5 h before LPS (or saline) stimulation at predetermined doses, and euthanized with CO2 at 1.5 h after the stimulation for cardiac blood collection. The whole blood was not anticoagulated, incubated in wet ice for 1.5 h, and centrifuged at 2000×g at 4° C. for 10 min to separate the serum. The serum was frozen at −80° C. for TNF-α assay. Quantification of the TNF-α was done with TNF-α ELISA kit according to the manufacturer's instruction.

[2] = PK assay in rat (intravenous injection and oral gavage); assay type: in vivo; settings: plasma, male SD rat; for Cmax: read-out: Peak concentration Cmax; for AUC(0-t): read-out: Area under curve AUC0-t; for AUC(0-inf): read-out: Area under curve AUC0-∞; for MRT: read-out: Average retention time MRT; for half-life: read-out: Half life t1/2 (converted)
Method: The rats used for pharmacokinetic study in the example were male SPF-grade SD rats (B&K Universal, Shanghai).
Route of administration: a single dose by oral gavage or intravenous injection
Sampling points: 0.083 h, 0.25 h, 0.5 h, 1 h, 2 h, 4 h, 6 h, 8 h and 24 h after administration
Sample processing: 0.2 mL of venous blood was collected, and let stand on ice before centrifugation to separate plasma (centrifugation conditions: 8000 rpm, 6 min, 4° C.). The separated plasma was stored at −80° C. before analysis.
Internal standard working solution: An appropriate amount of tolbutamide internal standard stock solution at 645,000 ng/mL was added into a volumetric flask, and was diluted to the volume with methanol. The solution was well mixed to give an internal standard working solution with a concentration of 50 ng/mL.
Sample pretreatment: 50 μL of plasma was added into a 1.5-mL centrifuge tube, and added with 250 μL of internal standard solution (methanol of the same volume for the blank control). The solution was well mixed by vortex, and centrifuged for 5 min at 14000 rpm. 200 μL of the supernatant was transferred into a 96-well sample feeding plate, and loaded onto a LC-MS/MS system.
Column: ACQUITY UPLC BEH C18 1.7 μm (50 mm×2.10 mm)
Mobile phase: A: 0.1% aqueous formic acid; B: 0.1% formic acid in acetonitrile
The data processing system was Analyst software (Applied Biosystems, USA, ver 1.5.5).

[3] = 1 mg/kg, intravenous injection, 1 mpk
[4] = 2 mg/kg, oral administration, 2 mpk, 5% DMSO + 15% Solutol + 80% Saline

Row | SMILES | IC50 (human IRAK4) [nM] | further results
1 | COc1cc2nn(C3CC(O)C3)cc2cc1NC(=O)c1cccc(C(F)(F)F)n1 (centres unmarked) [MY-004-084] | 9.5 | 
2 | COc1cc2nn(C3CC(C)(O)C3)cc2cc1NC(=O)c1cccc(C(F)(F)F)n1 (centres unmarked) [MY-004-128] | 6.6 | 
3 | CN(C)c1cc2nn([C@H]3CC[C@](C)(O)CC3)cc2cc1NC(=O)c1cccc(C(F)(F)F)n1 [MY-004-167] | 2.7 | 
4 | COc1cc2nn(CCN3CC(F)(F)C3)cc2cc1NC(=O)c1cccc(C(F)(F)F)n1 [MY-004-017] | 36 | 
5 | C[C@]1(O)CC[C@@H](n2cc3cc(NC(=O)c4cccc(C(F)(F)F)n4)c(-n4cccn4)cc3n2)CC1 [MY-004-227] | 1.7 | 
6 | CC(C)(O)c1cc2nn([C@H]3C[C@H](C(C)(C)O)C3)cc2cc1NC(=O)c1cccc(C#N)n1 [MY-004-110] | 48 | 
7 | COc1cc2nn([C@H]3C[C@H](C(C)(C)O)C3)cc2cc1NC(=O)c1cnc2ccccc2n1 [MY-004-094] | 41 | 
8 | COc1cc2nn([C@H]3C[C@@H](C(C)(C)O)C3)cc2cc1NC(=O)c1cccc(C(F)(F)F)n1 [MY-004-040] | 13 | 
9 | COc1cc2nn(C3CC(OC)C3)cc2cc1NC(=O)c1cccc(C(F)(F)F)n1 (centres unmarked) [MY-004-168] | 6.3 | 
10 | CN(C)c1cc2nn([C@H]3C[C@H](C(C)(C)O)C3)cc2cc1NC(=O)c1cccc(F)n1 [MY-004-118] | 16.7 | 
11 | O=C(Nc1cc2cn([C@H]3CC[C@@H](O)CC3)nc2cc1OCC1CC1)c1cccc(C(F)(F)F)n1 [MY-004-218] | 5.1 | 
12 | O=C(Nc1cc2cn([C@H]3CC[C@H](O)CC3)nc2cc1OCC1CC1)c1cccc(C(F)(F)F)n1 [MY-004-217] | 2.2 | 
13 | CC(C)(O)c1cc2nn([C@H]3CC[C@H](O)CC3)cc2cc1NC(=O)c1cccc(C(F)(F)F)n1 [MY-004-322] | 2.4 | 
14 | C[C@]1(O)CC[C@H](n2cc3cc(NC(=O)c4cccc(C(F)(F)F)n4)c(-n4cccn4)cc3n2)CC1 [MY-004-228] | 2 | Inhibition rate of TNF-α [1]: 88.46%
15 | COc1cc2nn([C@H]3C[C@H](C(C)(C)O)C3)cc2cc1NC(=O)c1cccc(C)n1 [MY-004-093] | 13 | 
16 | COc1cc2nn([C@H]3C[C@H](C(=O)OC)C3)cc2cc1NC(=O)c1cccc(C(F)(F)F)n1 [MY-004-100] | 11 | 
17 | CC(C)(O)[C@H]1C[C@H](n2cc3cc(NC(=O)c4cccc(C(F)(F)F)n4)c(-n4cc(C#N)cn4)cc3n2)C1 [MY-004-229] | 8.4 | 
18 | COc1cc2nn([C@H]3CC[C@@H](O)CC3)cc2cc1NC(=O)c1cccc(C(F)(F)F)n1 [MY-004-127-2] | 4.3 | 
19 | COc1cc2nn([C@H]3C[C@@H](C(=O)OC)C3)cc2cc1NC(=O)c1cccc(C(F)(F)F)n1 [MY-004-099] | 35 | 
20 | COc1cc2nn([C@H]3C[C@H](CO)C3)cc2cc1NC(=O)c1cccc(C(F)(F)F)n1 [MY-004-082] | 5 | Cmax ([2]; 1 mg/kg, intravenous injection, 1 mpk, 5% DMSO + 15% Solutol + 80% Saline): 1320 ng/mL; AUC(0-t) [2, 3]: 790 ng·h/mL; AUC(0-inf) [2, 3]: 793 ng·h/mL; MRT [2, 3]: 31.2 min; clearance ([2]; 1 mg/kg, intravenous injection, 1 mpk, read-out: Clearance CL): 21.9 mL/min/kg; half-life [2, 3]: 30.6 min; Vd ([2]; 1 mg/kg, intravenous injection, 1 mpk, read-out: Volume of distribution at steady state VZ): 0.93 L/kg; AUC(0-t) [2, 4]: 416 ng·h/mL; AUC(0-inf) [2, 4]: 424 ng·h/mL; MRT [2, 4]: 161 min; bioavailability ([2]; 2 mg/kg, oral administration, 2 mpk, 5% DMSO + 15% Solutol + 80% Saline, read-out: Bioavailability F): 26.3%; half-life [2, 4]: 65.4 min; Cmax [2, 4]: 114 ng/mL; Tmax ([2]; 2 mg/kg, oral administration, 2 mpk, 5% DMSO + 15% Solutol + 80% Saline, read-out: Time to peak tmax): 30 min
21 | CC(C)(O)c1cc2nn([C@H]3CC[C@@H](O)CC3)cc2cc1NC(=O)c1cccc(C(F)(F)F)n1 [MY-004-326] | 6.9 | 
22 | CC(C)(O)[C@H]1C[C@H](n2cc3cc(NC(=O)c4cccc(C(F)(F)F)n4)c(-c4ccccn4)cc3n2)C1 [MY-004-146] | 6.4 | 
23 | COc1cc2nn(C3CC(CO)C3)cc2cc1NC(=O)c1cccc(C(F)(F)F)n1 (centres unmarked) [MY-004-090] | 12.3 | 
24 | COc1cc2nn([C@H]3C[C@H](C(C)(C)O)C3)cc2cc1NC(=O)c1cccc(F)n1 [MY-004-119] | 14 | 
25 | CN(C)c1cc2nn([C@H]3CC[C@@H](O)CC3)cc2cc1NC(=O)c1cccc(C(F)(F)F)n1 [MY-004-154] | 1.6 | Inhibition rate of TNF-α [1]: 87.82%
